Experimental data taken from US9987296B2, “Compositions including anthocyanin or anthocyanidin for the prevention or treatment of Articular cartilage-associated conditions” (priority 2008, dated 2018).
Entries after “also recorded” stand apart in the source; their conditions may differ.

Legend:
[1] = system: bovine cartilage explants; experiment: Matrix synthesis (35S uptake) in bovine cartilage explants; assay type: cell-based
Protocol: Bovine cartilage explants (full thickness, 6 mm in diameter) were harvested from fresh femoral condyles. Human osteochondral plugs were harvested using 6 mm osteochondral grafting donor tool (Arthrez 1981-06S, Naples, Fla.) from femoral condyles retrieved from total knee arthroplasty surgery that had been stored in DMEM at 20 degrees C. for less than 24 hours. Full-thickness cartilage explants were cut from the subchondral bone. Each of the 6 mm cartilage disks were divided into 4 equal quadrants. Each quadrant was placed in a different experimental group. This allowed for a paired comparison and controlled for differences in grade of arthritis, thickness of cartilage, cell density, etc. The explants were washed 4-5 times with DMEM with 10% calf serum and were allowed to stabilize for 24 hours in a tissue culture incubator. Explants were then serum starved (0.1% calf serum) for 24 hours prior to commencement of cyanidin chloride treatment.
3 mL fresh media with 20 uCi/mL of ^35S-labeled sodium sulfate (NEX0414 Perkin Elmer, Boston, Mass.) (DMEM with 10% CS) was added to each of the explants along with 30 uL of 50 mM stock cyanidin chloride (MW 322.7 g/mole) solution (diluted in DMSO) (Chromadex Inc., Irvine, Calif.) to give the final cyanidin chloride concentration of (200 or 500 uM) in culture. Explants were subjected to cyanidin chloride treatment for 48 hours.
Radioactive media was aspirated after 48 hours and explants were washed in ice-cold 1×PBS for 10 minutes×3. Each cartilage explant quadrant was blotted dry and was placed in 500 uL of 2 mg/mL Proteinase K (Fisher Scientific, Fair Lawn, N.J.) in TE Buffer solution (10 mM Tris, 1 mM EDTA) and was allowed to rotate at 57 degrees C. for 24 hours in a hybridization oven until completely dissolved. Quantification of ^35S-labeled proteoglycans complexed to alcian blue by rapid filtration in multiwall plates was adopted and modified from Masuda et al Anal. Biochem 1994; 217:167-75. 75 uL of dilution buffer (50 mM Sodium Acetate pH^− 5.8. 0.5% Triton X-100) was added to each well of a 96 well plate (Millipore Multiscreen 96-well filtration system, Millipore, Billerica, Mass.) 25 uL of each digested cartilage explant sample was then loaded followed by 150 uL of 0.2% alcian blue solution (Alcian Blue 8GX electrophoresis grade, Sigma-Aldrich Inc., St. Louis Mo.) and was allowed to rotate for 1 hour at room temperature. The 96-well plate was then placed over a vacuum-manifold to aspirate the contents of the wells through the screen. The 3×200 uL vacuum washes with wash buffer (50 mM sodium acetate pI-I 5.8, 100 mM sodium sulfate, 50 mM MgCl2) were then performed. The 96-well filtration plate was then completely dried at 57 degrees C. for 5 minutes in a hybridization oven and was exposed to storage phosphor screen for 24 hours (Packard Instrument Company Inc., Meriden. Conn.). Phosphorimaging with Cyclone model A431200 (Packard Instrument Company Inc. Meriden, Conn.) was performed to quantify ^35S uptake by proteoglycans. ^35S uptake by proteoglycans in cartilage explants was normalized to DNA by Quant-iT ds DNA Assay Kit (Invitrogen Inc., Carlsbad Calif.).
The effect of cyanidin on bovine cartilage explants was tested. The dose response was also determined. Cartilage explants were treated with 1L-1 (50 ng/mL) for 24 hours. IL-1 reduces matrix synthesis and induces an inflammatory respond similar to osteoarthritis. Explants were then treated with cyanidin chloride at either 200 or 500 uM concentration for 24 hours. Matrix synthesis was monitored by measuring uptake of ^35S.
Bovine explants were initially subjected to IL-1 treatment for 24 hours. Explants were then treated with 500 uM cyanidin chloride in a low glucose (1 g/L) or high glucose concentration (4.5 g/L). […] The higher the glucose concentration increased matrix synthesis by 10%. The cyanidin treatment had small effect under low glucose conditions, but the effect was nearly 20% greater in the high glucose condition.

[2] = system: IGF-1; experiment: Real time RT-PCR for IGF-1 in human chondrocytes; assay type: cell-based; conditions: for IGF-1 gene expression compared to IL-1 alone: 5 or 50 ug/mL with IL-1, 50 ug/mL alone (FIGS. 3, 4)
Protocol: Chondrocytes were prepared by the enzymatic digestion of knee cartilage, as previously described. (Ahmed S et al., J Nutr 2005 135:20962102). Chondrocytes were plated (1×10^6 cells/mL) in 35 mm culture dishes (BD, Mountain View, Calif.) and cultured in DMEM:F12 (Mediatech, Herndon, Va.) supplemented with 10% FCS and 1% Penn:Strep for 72 hrs at 37° C. and 5% CO2 in a tissue culture incubator. Chondrocytes were serum starved overnight and then exposed to either kuromanin or cyanidin chloride (5 or 50 ug/mL), progrado (2 or 10 ug/mL) alone or in combination in fresh serum-free medium for 1 hr prior to the addition of IL-β.
Total cytoplasmic RNA was prepared from primary cultures of human chondrocytes using a commercially available kit according to the instructions of the manufacturer (Qiagen, Valencia, Calif.). Real time quantitative RT-PCR with internal fluorescent hybridization probes was performed as previously described (Ahmed S et al., ECAM 2005 2:301-8) and the IGF-1 gene expression was quantified using a commercially available Gene Expression Assay kit (Applied Biosystems, CA). Expression of IGF-1 mRNA was normalized to […] mRNA expression. and the results were expressed as fold induction relative to controls.

SMILES | effect on matrix synthesis, greater in high glucose than in low glucose ([1]; 500 uM, high glucose (4.5 g/L), after IL-1) [%] | effect on matrix synthesis ([1]; 500 uM, low glucose (1 g/L), after IL-1) | matrix synthesis (35S uptake) ([1]; IL-1 50 ng/mL 24 hours, then 200 or 500 uM for 24 hours, listed as Cyanidin) | matrix synthesis (35S uptake) ([1]; IL-1 50 ng/mL 24 hours, then 200 or 500 uM for 24 hours, listed as cyanidin) | matrix synthesis (35S uptake) ([1]; IL-1 50 ng/mL 24 hours, then 200 or 500 uM for 24 hours, listed as cyanidin chloride) | matrix synthesis (35S uptake) ([1]; after IL-1, 500 uM combined with high glucose (4.5 g/L)) | IGF-1 gene expression ([2]; 50 ug/mL dose, duplicate, called anomalous) | IGF-1 gene expression compared to IL-1 alone [2] | IGF-1 gene expression ([2]; IL-1 with compound at 5 or 50 ug/mL) | increase of matrix synthesis ([1]; higher glucose concentration (4.5 g/L vs 1 g/L), after IL-1) [%]
Oc1cc(O)c2cc(O)c(-c3ccc(O)c(O)c3)[o+]c2c1 [Cyanidin chloride] | ~20 | small effect | inconsistent effect | Initially a dose response was identified but difficult to reproduce | we could not reproduce this effect in several subsequent experiments | significantly induce chondroreparative activity; also recorded: increased matrix synthesis the most | elevated above control | increased IGF-1 gene expression more than kuromanin; also recorded: greater compared to IL-1 alone when treated with cyanidin alone or in combination with IL-1 | – | –
OC[C@H]1O[C@@H](Oc2cc3c(O)cc(O)cc3[o+]c2-c2ccc(O)c(O)c2)[C@H](O)[C@@H](O)[C@@H]1O.[Cl-] [Kuromanin chloride] | – | – | – | – | – | – | – | greater compared to IL-1 alone when treated with kuromanin at high dose | no further changing in this pattern | –
O=C[C@H](O)[C@@H](O)[C@H](O)[C@H](O)CO [glucose] | – | – | – | – | – | – | – | – | – | 10
